Test results as given in patent US20190328753A1, “COMPOSITIONS AND METHODS FOR TREATING OCULAR DISEASES” (priority 2015, published 2019).
Values joined by “and” are separate entries in the source; they are usually repeats but may differ in a detail not shown here. Equal entries are not always repeated.

Tested on: patients with moderate to severe MGD
Assay: Clinical trial (Example 8): topical Spironolactone (3 mg/ml) in MGD, retrospective pre-post
Conditions: for Turbidity, Mean / Vascularity, Mean / Zone A, Mean / Anterior Blepharitis, Mean / Obstruction, Mean / Anterior Blepharitis, mean change / Obstruction, mean change / Turbidity, mean change / Vascularity, mean change / Zone A, mean change: scale 0-4; for Global Evaluation, Mean / Global Evaluation, mean change / Subjective Global Assessment, Mean: scale 0-10
[1] = follow-up 1, patients with >1 follow-ups, low Schirmer's, n=10
[2] = follow-up 1, patients with >1 follow-ups, normal Schirmer's, n=28
[3] = follow-up 1, patients with >1 follow-ups, normal Schirmer's, n=28, scale 0-3
[4] = follow-up 1 vs final follow-up, low Schirmer's, n=10
[5] = follow-up 1 vs final follow-up, low Schirmer's, n=10, scale 0-3
[6] = follow-up 1 vs final follow-up, normal Schirmer's, n=28
[7] = follow-up 1 vs final follow-up, normal Schirmer's, n=28, positive = score decrease
[8] = follow-up 1 vs final follow-up, normal Schirmer's, n=28, scale 0-3
[9] = post-treatment follow-up 1, low Schirmer's, n=27
[10] = post-treatment follow-up 1, low Schirmer's, n=27, scale 0-3
[11] = post-treatment follow-up 1, normal Schirmer's, n=75
[12] = post-treatment follow-up 1, normal Schirmer's, n=75, scale 0-3

CC(=O)SC1CC2=CC(=O)CCC2(C)C2CCC3(C)C(CCC34CCC(=O)O4)C12 (stereo not drawn) [spironolactone, 7α-acetylthio-3-oxo-17α-pregn-4-ene-21,17-carbolactone]
Turbidity, Mean [1]: 1.95±0.76 and 1.95
Vascularity, Mean [1]: 1.1±0.88 and 1.1
Zone A, Mean [1]: 2.55±0.98 and 2.55
Global Evaluation, Mean [1]: 4.15±2.07 and 4.15
Schirmer's OD, Mean [2]: 17.07±10.10 and 17.07
Schirmer's OS, Mean [2]: 17.50±10.42 and 17.5
Vision OD, Mean [2]: 0.07±0.20 log Mar units and 0.07437 log Mar units
Vision OS, Mean [2]: 0.09±0.15 log Mar units and 0.08826 log Mar units
Keratitis OD Corneal, Mean [3]: 0.0±0.0 and 0
Keratitis OD Nasal, Mean [3]: 0.64±0.72 and 0.6429
Keratitis OD Temporal, Mean [3]: 0.54±0.68 and 0.5357
Keratitis OS Corneal, Mean [3]: 0.14±0.52 and 0.1429
Keratitis OS Nasal, Mean [3]: 0.82±0.80 and 0.8214
Keratitis OS Temporal, Mean [3]: 0.71±0.80 and 0.7143
Anterior Blepharitis, Mean [2]: 0.29±0.50 and 0.2857
Obstruction, Mean [2]: 1.12±0.83 and 1.116
Turbidity, Mean [2]: 1.96±0.62 and 1.964
Vascularity, Mean [2]: 1.42±0.84 and 1.42
Zone A, Mean [2]: 2.59±0.82 and 2.589
Global Evaluation, Mean [2]: 4.32±1.53 and 4.321
Schirmer's OD, mean change [4]: 2.9±4.93 and 2.9
Schirmer's OS, mean change [4]: 1.56±6.25 and 1.556
Vision OD, mean change [4]: 0.06±0.10 log units and 0.06011 log units
Vision OS, mean change [4]: 0.02±0.07 log units and 0.0185 log units
mean improvement in obstruction score (follow-up 1 vs final follow-up, low Schirmer's, n=10, positive = score decrease): 0.6±1.13
Keratitis OD Corneal, mean change [5]: 0
Keratitis OD Nasal, mean change [5]: 0.15
Keratitis OD Temporal, mean change [5]: 0.05
Keratitis OS Corneal, mean change [5]: 0.1111
Keratitis OS Nasal, mean change [5]: −0.2222
Keratitis OS Temporal, mean change [5]: −0.1667
Anterior Blepharitis, mean change [4]: −0.1±0.57 and −0.1
Obstruction, mean change [4]: −0.6
Turbidity, mean change [4]: 0.15±0.82 and 0.15
Vascularity, mean change [4]: 0.3±0.63 and 0.3
Zone A, mean change [4]: 0.25±0.75 and 0.25
Global Evaluation, mean change [4]: 0.25±2.55 and 0.25
Schirmer's OD, mean change [6]: 1.77±9.01 and 1.778
improvement in self-reported global assessment scores [7]: 0.77±1.36
mean improvement in obstruction score [7]: 0.06±0.87
mean improvement in turbidity score [7]: 0.16±1.00
mean improvement in vascularity score [7]: 0.29±0.79
Keratitis OD Corneal, mean change [8]: 0.0±0.0 and 0
Keratitis OD Temporal, mean change [8]: 0.017±0.57 and 0.01786
Keratitis OS Corneal, mean change [8]: 0.018±0.21 and 0.01786
Anterior Blepharitis, mean change [6]: 0.04±0.64 and 0.03571
Obstruction, mean change [6]: −0.0625
Turbidity, mean change [6]: −0.1607
Vascularity, mean change [6]: −0.2946
Zone A, mean change [6]: 0.13±0.69 and 0.125
Global Evaluation, mean change [6]: −0.7679
time to improved symptoms of ocular irritation (moderate to severe symptomatic MGD, 'as early as'): 2 weeks
side effects after topical administration (patients of the clinical trial): A small percentage of the patients reported a mild temporary burning sensation in the eye
Subjective Global Assessment, Mean (post-treatment follow-up 1, low Schirmer's (5 or less), n=27): 3.78±1.68 and 3.778
Schirmer's OD, Mean [9]: 7.52±7.42 mm and 7.519 mm
Schirmer's OS, Mean [9]: 6.92±5.34 mm and 6.923 mm
Vision OD, Mean [9]: 0.05±0.12 log Mar units and 0.04681 log Mar units
Vision OS, Mean [9]: 0.13±0.30 log Mar units and 0.1307 log Mar units
Keratitis OD Corneal, Mean [10]: 0.07±0.38 and 0.07407
Keratitis OD Nasal, Mean [10]: 0.93±0.84 and 0.9259
Keratitis OD Temporal, Mean [10]: 0.74±0.91 and 0.7407
Keratitis OS Corneal, Mean [10]: 0.15±0.37 and 0.1538
Keratitis OS Nasal, Mean [10]: 1.19±0.87 and 1.192
Keratitis OS Temporal, Mean [10]: 0.96±0.82 and 0.9615
Anterior Blepharitis, Mean [9]: 0.41±0.71 and 0.4074
Obstruction, Mean [9]: 1.13±1.05 and 1.13
Turbidity, Mean [9]: 1.89±0.91 and 1.889
Vascularity, Mean [9]: 0.93±0.829 and 0.9259
Zone A, Mean [9]: 2.46±1.13 and 2.463
Subjective Global Assessment, Mean (post-treatment follow-up 1, normal Schirmer's (>5), n=75): 4.03±1.57 and 4.033
Schirmer's OD, Mean [11]: 16.47±9.75 mm and 16.47 mm
Schirmer's OS, Mean [11]: 16.95±9.61 mm and 16.95 mm
Vision OD, Mean [11]: 0.08±0.18 log Mar units and 0.07686 log Mar units
Vision OS, Mean [11]: 0.11±0.22 log Mar units and 0.1115 log Mar units
Keratitis OD Corneal, Mean [12]: 0.007±0.06 and 0.006757
Keratitis OD Nasal, Mean [12]: 0.64±0.68 and 0.6419
Keratitis OD Temporal, Mean [12]: 0.45±0.64 and 0.4527
Keratitis OS Corneal, Mean [12]: 0.07±0.34 and 0.06757
Keratitis OS Nasal, Mean [12]: 0.72±0.73 and 0.723
Keratitis OS Temporal, Mean [12]: 0.57±0.69 and 0.5743
Anterior Blepharitis, Mean [11]: 0.39±0.67 and 0.3867
Obstruction, Mean [11]: 0.98±0.69 and 0.9833
Turbidity, Mean [11]: 1.75±0.75 and 1.753
Vascularity, Mean [11]: 1.11±0.829 and 1.11
Zone A, Mean [11]: 2.51±0.88 and 2.513
